From patent US6245799A, “[(Indol-3-yl)-cycloalkyl]-3-substituted azetidines for the treatment of central nervous system disorders” (American Home Products Corp, priority 2000, dated 2001)
Read-outs that look alike come from different tables or passages of the source.

Key:
[1] = target: T1, 5-HT transporter (Rattus norvegicus, UniProt P31652); assay: Rat Brain ^3 H-Paroxetine Binding Assay (RB 5HT Transporter)
T1 construct: frontal cortical membranes prepared from male S.D. rats; from tissue; host or cells: frontal cortical membranes of male S.D. (Sprague-Dawley) rats
Description: The 5-HT transporter affinity of the compounds of this invention was established in accordance with standard pharmaceutically accepted test procedures with representative compounds as follows:
Rat Brain ^3 H-Paroxetine Binding Assay (RB 5HT Transporter):
The following assay was used to determine a compound's affinity for the 5-HT transporter.
A protocol similar to that used by Cheetham et. al. (Neuropharmacol. 1993, 32, 737) was used. Briefly, frontal cortical membranes prepared from male S.D. rats were incubated with ^3 H-paroxetine (0.1 nM) for 60 min. at 25° C. All tubes also contained either vehicle, test compound (one to eight concentrations), or a saturating concentration of fluoxetine (10 μM) to define […]. All reactions are terminated by the addition of ice cold Tris buffer followed by rapid filtration using a Tom Tech filtration device to separate bound from free ^3 H-paroxetine. Bound radioactivity was quantitated using a Wallac 1205 Beta Plate® counter. Nonlinear regression analysis was used to determine IC50 values which were converted to Ki values using the method of Cheng and Prusoff (Biochem. Pharmacol. 1973, 22, 3099): [formula]

[2] = target: T2, Human 5-HT Transporter (Homo sapiens, UniProt P31645); assay: Inhibition of ^3 H-5-HT Uptake by cells Possessing the Human 5-HT Transporter (HC 5HT Transporter); assay type: cell-based
T2 construct: endogenous in cells; host or cells: Jar cells (human carcinoma cell line), treated with staurosporine to raise expression
Protocol: [Staurosporine greatly increases the expression of the 5-HT-transporter.] On the day of assay, vehicle, excess of fluoxetine, or test compound is added to various wells on the plate. All wells then receive ^3 H-5-HT and are incubated at 37° C. for 5 min. The wells are then washed with ice cold 50 mM Tris HCl (pH 7.4) buffer and aspirated to remove free ^3 H-5-HT. 25 μl of 0.25 M NaOH is then added to each well to lyse the cells and 75 μl scintillation cocktail (Microscint™ 20) added prior to quantitation on a Packard TopCount machine. Tubes with vehicle represent total possible uptake, radioactivity counted in tubes with fluoxetine represent nonspecific binding/uptake and is subtracted from the total possible uptake to give total possible specific uptake. This nonspecific binding (usual low in number) is then subtracted from the counts obtained in wells with various test compounds (or different concentrations of test drug) to give specific uptake in the presence of drug. Specific uptake is then expressed as a % of control values and is analyzed using nonlinear regression analysis (Prizm) to determine IC50 values. If the compound is active at inhibiting 5-HT uptake, its counts will be close to that obtained with fluoxetine.

[3] = rat frontal cortical membranes; ^3 H-paroxetine (0.1 nM), 60 min, 25° C.; n = 1; read-out: RB 5HT Transporter Ki
[4] = Jar cells (human carcinoma), staurosporine treated, ^3 H-5-HT uptake, 37° C., 5 min, n = 1, read-out: HC 5HT Transporter IC50
[5] = RB 5HT Transporter Ki, rat frontal cortical membranes; ^3 H-paroxetine (0.1 nM), 60 min, 25° C.; n = 1

T1 sequence (P31652 whole entry): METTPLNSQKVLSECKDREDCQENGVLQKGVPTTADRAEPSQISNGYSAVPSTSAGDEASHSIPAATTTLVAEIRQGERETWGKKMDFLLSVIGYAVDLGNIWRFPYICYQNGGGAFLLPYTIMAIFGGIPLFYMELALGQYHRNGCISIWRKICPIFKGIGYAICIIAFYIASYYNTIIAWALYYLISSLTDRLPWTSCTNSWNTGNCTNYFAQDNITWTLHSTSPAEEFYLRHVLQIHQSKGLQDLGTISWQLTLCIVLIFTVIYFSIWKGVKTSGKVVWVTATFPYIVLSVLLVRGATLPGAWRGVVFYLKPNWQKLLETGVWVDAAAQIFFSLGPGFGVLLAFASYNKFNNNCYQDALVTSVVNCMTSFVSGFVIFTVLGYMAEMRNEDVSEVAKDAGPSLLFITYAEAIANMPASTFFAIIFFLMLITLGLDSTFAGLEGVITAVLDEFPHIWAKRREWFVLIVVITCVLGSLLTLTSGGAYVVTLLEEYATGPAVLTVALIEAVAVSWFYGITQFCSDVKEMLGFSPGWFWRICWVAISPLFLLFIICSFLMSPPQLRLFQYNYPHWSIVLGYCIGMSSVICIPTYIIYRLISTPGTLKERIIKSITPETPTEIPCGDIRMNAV
T2 sequence (P31645 whole entry): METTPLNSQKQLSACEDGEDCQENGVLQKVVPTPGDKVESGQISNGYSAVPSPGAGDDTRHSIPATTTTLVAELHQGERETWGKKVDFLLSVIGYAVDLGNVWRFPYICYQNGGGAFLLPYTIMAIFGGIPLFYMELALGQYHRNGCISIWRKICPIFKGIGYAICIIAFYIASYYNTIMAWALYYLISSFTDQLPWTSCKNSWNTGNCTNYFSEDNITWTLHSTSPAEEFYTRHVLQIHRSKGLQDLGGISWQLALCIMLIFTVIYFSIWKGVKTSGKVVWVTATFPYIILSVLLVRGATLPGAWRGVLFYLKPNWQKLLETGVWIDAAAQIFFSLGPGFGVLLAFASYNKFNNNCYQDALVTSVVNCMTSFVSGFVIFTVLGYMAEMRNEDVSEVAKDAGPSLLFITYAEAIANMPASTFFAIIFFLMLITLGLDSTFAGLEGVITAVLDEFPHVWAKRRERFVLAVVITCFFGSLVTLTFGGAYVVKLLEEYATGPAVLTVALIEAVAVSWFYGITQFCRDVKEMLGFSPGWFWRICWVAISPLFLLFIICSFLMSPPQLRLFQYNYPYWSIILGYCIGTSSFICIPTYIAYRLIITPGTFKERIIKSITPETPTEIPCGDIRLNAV

| Compound | Ki [1, 3] | IC50 [2, 4] | Ki [1, 5] | other results |
| --- | --- | --- | --- | --- |
| 2-{cis-4-[3-(3-Methoxy-phenoxy)-azetidin-1-yl]-cyclohexyl}-1H-indole [Example 6a] | 120 nM | – | – | – |
| Fc1cccc(OC2CN(C3CCC(c4c[nH]c5cc(F)ccc45)CC3)C2)c1 (single isomer, unassigned) [Example 10a, 6-Fluoro-3-{4-[3-(3-fluoro-phenoxy)-azetidin-1-yl]-cyclohexyl}-1H-indole] | 190 nM | – | – | – |
| Fc1cccc(OC2CN(C3CCC(c4c[nH]c5cc(F)ccc45)CC3)C2)c1 (single isomer, unassigned) [Example 10b, 6-Fluoro-3-{4-[3-(3-fluoro-phenoxy)-azetidin-1-yl]-cyclohexyl}-1H-indole] | 73 nM | 4600 nM | – | – |
| COc1ccccc1NC1CN([C@H]2CC[C@@H](c3c[nH]c4ccc(F)cc43)CC2)C1 [Example 1a] | 15 nM | 962 nM | – | – |
| COc1ccccc1NC1CN([C@H]2CC[C@H](c3c[nH]c4ccc(F)cc43)CC2)C1 [Example 1b] | 17 nM | 591 nM | – | – |
| N#Cc1ccc2[nH]cc([C@H]3CC[C@@H](N4CC(Oc5cccc(F)c5)C4)CC3)c2c1 [Example 2a, 3-(cis-4-[3-(3-Fluoro-phenoxy)-azetidin-1-yl]-cyclohexyl)-1H-indole-5-carbonitrile] | 16 nM | 337 nM | – | – |
| N#Cc1ccc2[nH]cc([C@H]3CC[C@H](N4CC(Oc5cccc(F)c5)C4)CC3)c2c1 [Example 2b, 3-(trans-4-[3-(3-Fluoro-phenoxy)-azetidin-1-yl]-cyclohexyl)-1H-indole-5-carbonitrile] | 48 nM | 282 nM | – | – |
| COc1cccc(OC2CN([C@H]3CC[C@@H](c4c[nH]c5ccc(C#N)cc54)CC3)C2)c1 [Example 3a] | – | – | 2.38 nM | IC50 [2]: 91 nM |
| COc1cccc(OC2CN([C@H]3CC[C@H](c4c[nH]c5ccc(C#N)cc54)CC3)C2)c1 [Example 3b] | – | – | 11 nM | IC50 [2]: 232 nM |
| Fc1cccc(NC2CN([C@H]3CC[C@@H](c4c[nH]c5ccc(F)cc54)CC3)C2)c1 [Example 4, {1-[cis-4-(5-Fluoro-1H-indol-3-yl)-cyclohexyl]-azetidin-3-yl}-(3-fluoro-phenyl)-amine] | 18 nM | 6390 nM | – | – |
| COc1ccccc1NC1CN([C@H]2CC[C@@H](c3c[nH]c4ccccc43)CC2)C1 [Example 5a, {1-[cis-4-(1H-Indol-3-yl)-cyclohexyl]-azetidin-3-yl}-(2-methoxy-phenyl)-amine] | – | – | 124 nM | – |
| COc1ccccc1NC1CN([C@H]2CC[C@H](c3c[nH]c4ccccc43)CC2)C1 [Example 5b, {1-[trans-4-(1H-Indol-3-yl)-cyclohexyl]-azetidin-3-yl}-(2-methoxy-phenyl)-amine] | – | – | 34 nM | – |
| Fc1cccc(OC2CN([C@H]3CC[C@@H](c4c[nH]c5ccc(F)cc54)CC3)C2)c1 [Example 7a, 5-Fluoro-3-{cis-4-[3-(3-fluoro-phenoxy)-azetidin-1-yl]-cyclohexyl}-1H-indole] | 257 nM | – | – | – |
| Fc1cccc(OC2CN([C@H]3CC[C@H](c4c[nH]c5ccc(F)cc54)CC3)C2)c1 [Example 7b, 5-Fluoro-3-{trans-4-[3-(3-fluoro-phenoxy)-azetidin-1-yl]-cyclohexyl}-1H-indole] | – | – | – | Ki ([1]; read-out: RB 5HT Transporter Ki; rat frontal cortical membranes; ^3 H-paroxetine (0.1 nM), 60 min, 25° C.; n = 1): 68 nM; IC50 ([2]; read-out: HC 5HT Transporter IC50, Jar cells (human carcinoma), staurosporine treated, ^3 H-5-HT uptake, 37° C., 5 min, n = 1): 6000 nM |
| COc1cccc(OC2CN([C@H]3CC[C@@H](c4c[nH]c5ccc(F)cc54)CC3)C2)c1 [Example 8a, 5-Fluoro-3-{cis-4-[3-(3-methoxy-phenoxy)-azetidin-1-yl]-cyclohexyl}-1H-indole] | 24 nM | 6000 nM | – | – |
| COc1cccc(OC2CN([C@H]3CC[C@H](c4c[nH]c5ccc(F)cc54)CC3)C2)c1 [Example 8b, 5-Fluoro-3-{trans-4-[3-(3-methoxy-phenoxy)-azetidin-1-yl]-cyclohexyl}-1H-indole] | 45 nM | 1500 nM | – | – |
| Fc1cccc(OC2CN([C@H]3CC[C@@H](c4c[nH]c5ccccc54)CC3)C2)c1 [Example 9a, 3-{4-[3-(3-Fluoro-phenoxy)-azetidin-1-yl]-cyclohexyl}-1H-indole] | – | – | 275 nM | – |
| Fc1cccc(OC2CN([C@H]3CC[C@H](c4c[nH]c5ccccc54)CC3)C2)c1 [Example 9b, 3-{4-[3-(3-Fluoro-phenoxy)-azetidin-1-yl]-cyclohexyl}-1H-indole] | – | – | 455 nM | – |
